Measurements reported in patent publication US8497380B2, “Substituted acetophenones useful as PDE4 inhibitors” (Leo Pharma A/S, priority 2006, dated 2013).

System: Human peripheral blood mononuclear cells (PBMC)
Test: TNFalfa-Release
Assay type: cell-based
Conditions: inhibition of TNF-a secretion, PBMC pre-incubated 30 minutes, stimulated 18 hours with lipopolysaccharide
In short: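 Buffy-coat PBMC at 5×105 c/ml in RPMI1640 with 2% FCS were pre-incubated 30 min with compound, then stimulated 18 h with LPS 1 mg/ml. Supernatant TNF-a measured by enzyme immunoassay; pIC50 from inhibition curves relative to LPS-stimulated and unstimulated wells.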

Row | Compound | IC50 [nM]
1 | COc1ccc(C(=O)Cc2c(Cl)cncc2Cl)c(OCC(=O)Nc2ccccc2)c1OC [Compound 205, 2-{6-[2-(3,5-Dichloro-pyridin-4-yl)-acetyl]-2,3-dimethoxy-phenoxy}-N-phenyl-acetamide] | < 1000
2 | CCOc1c(OC)ccc(C(=O)Cc2c(Cl)cncc2Cl)c1O [Compound 262, 2-(3,5-Dichloro-pyridin-4-yl)-1-(3-ethoxy-2-hydroxy-4-methoxy-phenyl)-ethanone] | < 1000
3 | COc1ccc(C(=O)Cc2c(Cl)cncc2Cl)c(OCCOc2ccc(Cl)cc2)c1OC [Compound 153, 1-{2-[2-(4-Chloro-phenoxy)-ethoxy]-3,4-dimethoxy-phenyl}-2-(3,5-dichloro-pyridin-4-yl)-ethanone] | < 1000
4 | COc1ccc(C(=O)Cc2c(Cl)cncc2Cl)c(OCCc2cccc(Br)c2)c1OC [Compound 127, 1-{2-[2-(3-Bromo-phenyl)-ethoxy]-3,4-dimethoxy-phenyl}-2-(3,5-dichloro-pyridin-4-yl)-ethanone] | < 1000
5 | COc1ccc(C(=O)Cc2c(Cl)cncc2Cl)c(OCC(=O)NCCc2cccnc2)c1OC [Compound 249, 2-{6-[2-(3,5-Dichloro-pyridin-4-yl)-acetyl]-2,3-dimethoxy-phenoxy}-14-(2-pyridin-3-yl-ethyl)-acetamide] | < 1000
6 | COc1ccc(C(=O)Cc2c(Cl)cncc2Cl)c(OCC(=O)NCc2ccccc2Cl)c1OC [Compound 244, N-(2-Chloro-benzyl)-2-{6-[2-(3,5-dichloro-pyridin-4-yl)-acetyl]-2,3-dimethoxy-phenoxy}-acetamide] | < 1000
7 | COc1ccc(CNC(=O)COc2c(C(=O)Cc3c(Cl)cncc3Cl)ccc(OC)c2OC)cc1 [Compound 213, 2-{6-[2-(3,5-Dichloro-pyridin-4-yl)-acetyl]-2,3-dimethoxy-phenoxy}-N-(4-methoxy-benzyl)-acetamide] | < 1000
8 | COc1ccc(C(=O)Cc2c(Cl)cncc2Cl)c(OCC(=O)NCCCc2ccccc2)c1OC [Compound 243, 2-{6-[2-(3,5-Dichloro-pyridin-4-yl)-acetyl]-2,3-dimethoxy-phenoxy}-N-(3-phenyl-propyl)-acetamide] | < 1000
9 | C=CCOc1c(OC)ccc(C(=O)Cc2c(Cl)cncc2Cl)c1OCCc1ccccc1 [Compound 268, 1-(3-Allyloxy-4-methoxy-2-phenethyloxy-phenyl)-2-(3,5-dichloro-pyridin-4-yl)-ethanone] | < 1000
10 | COc1ccc(CCOc2c(C(=O)Cc3c(Cl)cncc3Cl)ccc(OC)c2OC)cc1OC [Compound 131, 2-(3,5-Dichloro-pyridin-4-yl)-1-{2-[2-(3,4-dimethoxy-phenyl)-ethoxy]-3,4-dimethoxy-phenyl}-ethanone] | < 1000
11 | COc1ccc(C(=O)Cc2c(Cl)cncc2Cl)c(OCC(=O)NCC2CCCCC2)c1OC [Compound 219, N-Cyclohexylmethyl-2-{6-[2-(3,5-dichloro-pyridin-4-yl)-acetyl]-2,3-dimethoxy-phenoxy}-acetamide] | < 1000
12 | COc1ccc(C(=O)Cc2c(Cl)cncc2Cl)c(OCC(=O)NCc2cccnc2)c1OC [Compound 230, 2-{6-[2-(3,5-Dichloro-pyridin-4-yl)-acetyl]-2,3-dimethoxy-phenoxy}-N-pyridin-3-ylmethyl-acetamide] | < 1000
13 | COc1ccc(C(=O)Cc2c(Cl)cncc2Cl)c(O)c1OCC1CC1 [Compound 261, 1-(3-Cyclopropylmethoxy-2-hydroxy-4-methoxy-phenyl)-2-(3,5-dichloro-pyridin-4-yl)-ethanone] | < 1000
14 | COc1ccccc1CCOc1c(C(=O)Cc2c(Cl)cncc2Cl)ccc(OC)c1OC [Compound 128, 2-(3,5-Dichloro-pyridin-4-yl)-1-{3,4-dimethoxy-2-[2-(2-methoxy-phenyl)-ethoxy]-phenyl}-ethanone] | < 1000
15 | C=CCOc1c(OC)ccc(C(=O)Cc2c(Cl)cncc2Cl)c1OC [Compound 193, 1-(3-Allyloxy-2,4-dimethoxy-phenyl)-2-(3,5-dichloro-pyridin-4-yl)-ethanone] | < 1000
16 | COc1ccc(C(=O)COc2c(C(=O)Cc3c(Cl)cncc3Cl)ccc(OC)c2OC)cc1 [Compound 146, 2-(3,5-Dichloro-pyridin-4-yl)-1-{3,4-dimethoxy-2-[2-(4-methoxy-phenyl)-2-oxo-ethoxy]-phenyl}-ethanone] | < 1000
17 | COc1ccc(C(=O)Cc2c(Cl)cncc2Cl)c(OCC(=O)NCc2ccccc2C)c1OC [Compound 237, 2-{6-[2-(3,5-Dichloro-pyridin-4-yl)-acetyl]-2,3-dimethoxy-phenoxy}-N-(2-methyl-benzyl)-acetamide] | < 1000
18 | COc1ccc(C(=O)Cc2c(Cl)cncc2Cl)c(OCC(N)=O)c1OC [Compound 184, 2-{6-[2-(3,5-Dichloro-pyridin-4-yl)-acetyl]-2,3-dimethoxy-phenoxy}-acetamide] | < 1000
19 | COc1ccc(C(=O)Cc2c(Cl)cncc2Cl)c(OCCCN2C(=O)c3ccccc3C2=O)c1OC [Compound 186, 2-(3-{6-[2-(3,5-Dichloro-pyridin-4-yl)-acetyl]-2,3-dimethoxy-phenoxy}-propyl)-isoindole-1,3-dione] | < 1000
20 | COc1ccc(C(=O)Cc2c(Cl)cncc2Cl)c(OCC(=O)NCc2ccccc2)c1OC [Compound 203, N-Benzyl-2-{6-[2-(3,5-dichloro-pyridin-4-yl)-acetyl]-2,3-dimethoxy-phenoxy}-acetamide] | < 1000
21 | COc1ccc(CCOc2c(C(=O)Cc3c(Cl)cncc3Cl)ccc(OC)c2OC)cc1 [Compound 126, 2-(3,5-Dichloro-pyridin-4-yl)-1-{3,4-dimethoxy-2-[2-(4-methoxy-phenyl)-ethoxy]-phenyl}-ethanone] | < 1000
22 | COc1ccc(C(=O)Cc2c(Cl)cncc2Cl)c(OCC(=O)NCc2cccc(F)c2)c1OC [Compound 238, 2-{6-[2-(3,5-Dichloro-pyridin-4-yl)-acetyl]-2,3-dimethoxy-phenoxy}-N-(3-fluoro-benzyl)-acetamide] | < 1000
23 | CCCNC(=O)COc1c(C(=O)Cc2c(Br)cncc2Br)ccc(OC)c1OC [Compound 293, 2-{6-[2-(3,5-Dibromo-pyridin-4-yl)-acetyl]-2,3-dimethoxy-phenoxy}-N-propyl-acetamide] | < 1000
24 | COc1ccc(C(=O)Cc2c(Cl)cncc2Cl)c(OCC(=O)N[C@@H](C)c2ccccc2)c1OC [Compound 226, (S)-2-(6-[2-(3,5-Dichloro-pyridin-4-yl)-acetyl]-2,3-dimethoxy-phenoxy)-N-(1-phenyl-ethyl)-acetamide] | < 1000
25 | C=CCOc1c(OC)ccc(C(=O)Cc2c(Cl)cncc2Cl)c1OCCc1ccc(F)cc1 [Compound 269, 1-{3-Allyloxy-2-[2-(4-fluoro-phenyl)-ethoxy]-4-methoxy-phenyl}-2-(3,5-dichloro-pyridin-4-yl)-ethanone] | < 1000
26 | COc1ccc(C(=O)Cc2c(Cl)cncc2Cl)c(OCC(=O)NCCCN2CCCC2=O)c1OC [Compound 255, 2-{6-[2-(3,5-Dichloro-pyridin-4-yl)-acetyl]-2,3-dimethoxy-phenoxy}-N-[3-(2-oxo-pyrrolidin-1-yl)-propyl]-acetamide] | < 1000
27 | COc1ccc(C(=O)Cc2c(Cl)cncc2Cl)c(OCC(=O)NC2CCCCC2)c1OC [Compound 215, N-Cyclohexyl-2-{6-[2-(3,5-dichloro-pyridin-4-yl)-acetyl]-2,3-dimethoxy-phenoxy}-acetamide] | < 1000
